How the values were obtained:
[1] = target: T1, Muscarinic acetylcholine receptor M2 (Homo sapiens, UniProt P08172)
T1 sequence (P08172 whole entry): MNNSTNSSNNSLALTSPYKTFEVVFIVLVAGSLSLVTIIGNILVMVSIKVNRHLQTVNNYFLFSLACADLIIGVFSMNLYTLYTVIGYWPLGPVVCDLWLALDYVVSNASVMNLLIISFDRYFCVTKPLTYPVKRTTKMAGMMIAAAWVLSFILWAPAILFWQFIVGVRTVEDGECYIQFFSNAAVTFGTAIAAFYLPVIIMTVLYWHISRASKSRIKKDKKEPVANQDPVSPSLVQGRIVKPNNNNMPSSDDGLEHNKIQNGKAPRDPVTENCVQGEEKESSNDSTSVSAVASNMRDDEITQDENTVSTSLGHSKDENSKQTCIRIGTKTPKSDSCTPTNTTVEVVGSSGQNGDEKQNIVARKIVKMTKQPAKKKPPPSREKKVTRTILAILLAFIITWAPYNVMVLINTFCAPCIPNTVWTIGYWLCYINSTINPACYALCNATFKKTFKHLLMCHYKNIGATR

[2] = target: T2, Peroxisome proliferator-activated receptor gamma (Homo sapiens, UniProt P37231); assay type: functional
T2 sequence (P37231 whole entry): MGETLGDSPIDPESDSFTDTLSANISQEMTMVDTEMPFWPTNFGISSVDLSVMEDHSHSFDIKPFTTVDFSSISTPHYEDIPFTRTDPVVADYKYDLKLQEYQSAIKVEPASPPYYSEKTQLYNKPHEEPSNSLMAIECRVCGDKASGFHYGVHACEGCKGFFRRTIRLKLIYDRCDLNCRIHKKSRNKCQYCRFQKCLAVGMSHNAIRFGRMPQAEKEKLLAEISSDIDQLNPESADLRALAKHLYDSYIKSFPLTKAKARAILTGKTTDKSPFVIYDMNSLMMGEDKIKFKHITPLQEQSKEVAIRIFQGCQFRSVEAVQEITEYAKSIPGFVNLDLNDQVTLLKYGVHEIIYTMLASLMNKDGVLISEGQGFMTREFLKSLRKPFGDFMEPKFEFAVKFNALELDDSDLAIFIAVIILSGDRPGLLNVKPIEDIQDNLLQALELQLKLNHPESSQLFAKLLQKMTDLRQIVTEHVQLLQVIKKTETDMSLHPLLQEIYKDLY

[3] = target: Voltage-dependent L-type calcium channel subunit alpha-1C (Homo sapiens, UniProt Q13936); assay type: functional, cell-based
Voltage-dependent L-type calcium channel subunit alpha-1C, sequence (Q13936 whole entry): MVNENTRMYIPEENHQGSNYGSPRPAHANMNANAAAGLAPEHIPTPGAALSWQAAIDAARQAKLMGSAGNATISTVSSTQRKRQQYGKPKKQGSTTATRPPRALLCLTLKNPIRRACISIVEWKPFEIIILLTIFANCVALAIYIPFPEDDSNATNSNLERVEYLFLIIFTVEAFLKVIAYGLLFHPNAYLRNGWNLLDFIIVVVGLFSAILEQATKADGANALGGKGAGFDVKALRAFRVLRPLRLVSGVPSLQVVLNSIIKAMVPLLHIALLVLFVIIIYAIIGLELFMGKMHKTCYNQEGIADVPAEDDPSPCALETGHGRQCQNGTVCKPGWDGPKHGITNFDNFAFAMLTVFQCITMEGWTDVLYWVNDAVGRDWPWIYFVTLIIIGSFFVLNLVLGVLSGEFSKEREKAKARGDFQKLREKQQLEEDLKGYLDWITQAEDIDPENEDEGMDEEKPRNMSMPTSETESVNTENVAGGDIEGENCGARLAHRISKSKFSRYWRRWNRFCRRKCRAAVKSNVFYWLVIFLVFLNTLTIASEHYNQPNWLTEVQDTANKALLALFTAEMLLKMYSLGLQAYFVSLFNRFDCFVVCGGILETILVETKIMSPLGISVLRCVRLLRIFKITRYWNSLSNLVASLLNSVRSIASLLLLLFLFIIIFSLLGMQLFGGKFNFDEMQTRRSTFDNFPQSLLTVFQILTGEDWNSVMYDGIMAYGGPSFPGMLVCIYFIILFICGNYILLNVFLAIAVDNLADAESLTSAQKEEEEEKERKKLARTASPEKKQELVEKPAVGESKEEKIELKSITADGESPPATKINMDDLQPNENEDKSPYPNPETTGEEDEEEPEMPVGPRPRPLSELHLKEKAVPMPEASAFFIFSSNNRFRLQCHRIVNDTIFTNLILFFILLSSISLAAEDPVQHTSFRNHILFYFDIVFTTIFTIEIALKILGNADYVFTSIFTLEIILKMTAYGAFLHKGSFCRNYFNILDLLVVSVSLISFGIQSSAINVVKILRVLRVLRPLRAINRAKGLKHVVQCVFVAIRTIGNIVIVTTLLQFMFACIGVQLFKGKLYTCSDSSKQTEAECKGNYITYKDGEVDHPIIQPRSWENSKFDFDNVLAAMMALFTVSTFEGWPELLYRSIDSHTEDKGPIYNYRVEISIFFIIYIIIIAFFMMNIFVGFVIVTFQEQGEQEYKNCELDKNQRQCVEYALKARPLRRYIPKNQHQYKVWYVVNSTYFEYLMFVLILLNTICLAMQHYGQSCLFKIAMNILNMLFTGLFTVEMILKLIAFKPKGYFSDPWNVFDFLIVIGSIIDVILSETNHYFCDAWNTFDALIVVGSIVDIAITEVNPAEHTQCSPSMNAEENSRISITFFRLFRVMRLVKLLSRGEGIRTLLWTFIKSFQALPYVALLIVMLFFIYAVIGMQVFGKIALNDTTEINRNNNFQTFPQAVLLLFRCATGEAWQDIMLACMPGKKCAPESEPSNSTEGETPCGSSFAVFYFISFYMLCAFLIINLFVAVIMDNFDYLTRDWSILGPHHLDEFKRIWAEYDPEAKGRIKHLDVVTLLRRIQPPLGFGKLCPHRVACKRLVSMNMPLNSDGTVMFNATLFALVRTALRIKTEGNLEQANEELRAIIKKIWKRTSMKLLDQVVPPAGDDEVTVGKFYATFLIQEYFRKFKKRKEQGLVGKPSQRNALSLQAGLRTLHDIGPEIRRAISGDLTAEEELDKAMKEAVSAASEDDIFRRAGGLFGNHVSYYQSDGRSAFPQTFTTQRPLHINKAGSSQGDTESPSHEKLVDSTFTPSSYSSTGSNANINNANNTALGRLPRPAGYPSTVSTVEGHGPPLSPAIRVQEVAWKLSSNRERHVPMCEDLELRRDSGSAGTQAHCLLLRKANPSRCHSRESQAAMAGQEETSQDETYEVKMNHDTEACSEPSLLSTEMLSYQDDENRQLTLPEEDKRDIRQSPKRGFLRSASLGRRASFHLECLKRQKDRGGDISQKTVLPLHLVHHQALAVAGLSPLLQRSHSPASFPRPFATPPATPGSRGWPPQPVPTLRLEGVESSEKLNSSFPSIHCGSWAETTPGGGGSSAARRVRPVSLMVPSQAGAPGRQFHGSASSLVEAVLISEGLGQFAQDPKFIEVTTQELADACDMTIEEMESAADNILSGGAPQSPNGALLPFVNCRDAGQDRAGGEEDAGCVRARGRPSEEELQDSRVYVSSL

[4] = target: Gamma-aminobutyric acid receptor subunit alpha-1/alpha-2/beta-2/gamma-2 (Homo sapiens, UniProt P14867+P18507+P47869+P47870); assay type: functional, cell-based
B1 bradykinin receptor = target: T3, B1 bradykinin receptor (Homo sapiens, UniProt P46663)
T3 sequence (P46663 whole entry): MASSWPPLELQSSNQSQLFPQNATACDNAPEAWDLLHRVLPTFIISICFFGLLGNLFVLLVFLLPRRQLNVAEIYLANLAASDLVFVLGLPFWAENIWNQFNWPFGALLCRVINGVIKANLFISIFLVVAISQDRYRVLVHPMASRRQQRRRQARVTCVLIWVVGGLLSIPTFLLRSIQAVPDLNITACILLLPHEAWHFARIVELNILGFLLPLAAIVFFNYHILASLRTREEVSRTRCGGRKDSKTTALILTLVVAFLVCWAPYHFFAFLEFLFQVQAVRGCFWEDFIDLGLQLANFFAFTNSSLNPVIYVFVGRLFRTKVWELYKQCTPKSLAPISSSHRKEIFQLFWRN

[5] = target: T4, Corticotropin-releasing factor receptor 1 (Homo sapiens, UniProt P34998)
T4 sequence (P34998 whole entry): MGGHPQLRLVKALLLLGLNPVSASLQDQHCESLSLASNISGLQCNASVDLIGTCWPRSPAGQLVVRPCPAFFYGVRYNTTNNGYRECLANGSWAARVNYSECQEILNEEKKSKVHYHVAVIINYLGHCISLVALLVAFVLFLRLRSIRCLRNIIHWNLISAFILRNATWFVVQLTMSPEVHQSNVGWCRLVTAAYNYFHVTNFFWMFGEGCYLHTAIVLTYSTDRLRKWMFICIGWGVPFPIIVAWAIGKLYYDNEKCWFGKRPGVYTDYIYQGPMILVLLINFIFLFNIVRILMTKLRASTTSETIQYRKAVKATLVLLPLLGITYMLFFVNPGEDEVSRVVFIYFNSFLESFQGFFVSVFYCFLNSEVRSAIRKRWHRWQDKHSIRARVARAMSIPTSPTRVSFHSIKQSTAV

[6] = target: Gamma-aminobutyric acid type B receptor subunit 1 (Homo sapiens, UniProt Q9UBS5)
D(1B) dopamine receptor = D(1B) dopamine receptor (Homo sapiens, UniProt P21918)
D(1B) dopamine receptor, sequence (P21918 whole entry): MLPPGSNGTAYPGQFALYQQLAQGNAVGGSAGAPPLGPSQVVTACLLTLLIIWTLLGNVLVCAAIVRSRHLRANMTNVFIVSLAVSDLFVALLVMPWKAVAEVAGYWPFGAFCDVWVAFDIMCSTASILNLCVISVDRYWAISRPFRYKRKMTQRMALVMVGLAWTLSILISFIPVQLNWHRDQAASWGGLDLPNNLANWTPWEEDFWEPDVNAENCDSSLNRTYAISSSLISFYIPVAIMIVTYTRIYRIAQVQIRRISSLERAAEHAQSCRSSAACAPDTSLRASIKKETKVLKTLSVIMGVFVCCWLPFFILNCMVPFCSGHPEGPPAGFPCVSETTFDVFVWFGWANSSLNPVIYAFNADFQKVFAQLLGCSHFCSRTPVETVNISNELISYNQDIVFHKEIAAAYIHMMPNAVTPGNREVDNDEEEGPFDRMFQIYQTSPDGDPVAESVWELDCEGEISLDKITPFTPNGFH

[7] = target: 5-hydroxytryptamine receptor 5A (Homo sapiens, UniProt P47898)
5-hydroxytryptamine receptor 5A, sequence (P47898 whole entry): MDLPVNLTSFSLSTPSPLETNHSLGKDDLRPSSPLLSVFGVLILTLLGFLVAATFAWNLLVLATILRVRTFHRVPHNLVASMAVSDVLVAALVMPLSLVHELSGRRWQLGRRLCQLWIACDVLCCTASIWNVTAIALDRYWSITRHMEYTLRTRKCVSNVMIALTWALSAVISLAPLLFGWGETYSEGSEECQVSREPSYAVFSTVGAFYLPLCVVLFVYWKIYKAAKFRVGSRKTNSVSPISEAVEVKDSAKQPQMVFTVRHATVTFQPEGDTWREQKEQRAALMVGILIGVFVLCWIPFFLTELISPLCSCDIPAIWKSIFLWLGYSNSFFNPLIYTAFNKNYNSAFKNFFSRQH

[8] = target: 5-hydroxytryptamine receptor 6 (Homo sapiens, UniProt P50406)
5-hydroxytryptamine receptor 6, sequence (P50406 whole entry): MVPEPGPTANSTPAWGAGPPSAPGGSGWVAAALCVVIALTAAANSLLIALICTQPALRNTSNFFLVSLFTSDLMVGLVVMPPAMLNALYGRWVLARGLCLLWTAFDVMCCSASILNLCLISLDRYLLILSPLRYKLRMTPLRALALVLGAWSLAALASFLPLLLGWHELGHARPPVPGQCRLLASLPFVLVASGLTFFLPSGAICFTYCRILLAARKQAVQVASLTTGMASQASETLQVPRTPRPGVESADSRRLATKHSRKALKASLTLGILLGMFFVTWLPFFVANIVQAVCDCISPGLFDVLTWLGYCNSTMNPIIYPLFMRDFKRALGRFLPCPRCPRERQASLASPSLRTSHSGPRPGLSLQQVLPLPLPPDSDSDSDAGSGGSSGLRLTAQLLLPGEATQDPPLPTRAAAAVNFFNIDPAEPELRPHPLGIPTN

[9] = target: Rod cGMP-specific 3',5'-cyclic phosphodiesterase subunit alpha (Homo sapiens, UniProt P16499); assay type: functional
Rod cGMP-specific 3',5'-cyclic phosphodiesterase subunit alpha, sequence (P16499 whole entry): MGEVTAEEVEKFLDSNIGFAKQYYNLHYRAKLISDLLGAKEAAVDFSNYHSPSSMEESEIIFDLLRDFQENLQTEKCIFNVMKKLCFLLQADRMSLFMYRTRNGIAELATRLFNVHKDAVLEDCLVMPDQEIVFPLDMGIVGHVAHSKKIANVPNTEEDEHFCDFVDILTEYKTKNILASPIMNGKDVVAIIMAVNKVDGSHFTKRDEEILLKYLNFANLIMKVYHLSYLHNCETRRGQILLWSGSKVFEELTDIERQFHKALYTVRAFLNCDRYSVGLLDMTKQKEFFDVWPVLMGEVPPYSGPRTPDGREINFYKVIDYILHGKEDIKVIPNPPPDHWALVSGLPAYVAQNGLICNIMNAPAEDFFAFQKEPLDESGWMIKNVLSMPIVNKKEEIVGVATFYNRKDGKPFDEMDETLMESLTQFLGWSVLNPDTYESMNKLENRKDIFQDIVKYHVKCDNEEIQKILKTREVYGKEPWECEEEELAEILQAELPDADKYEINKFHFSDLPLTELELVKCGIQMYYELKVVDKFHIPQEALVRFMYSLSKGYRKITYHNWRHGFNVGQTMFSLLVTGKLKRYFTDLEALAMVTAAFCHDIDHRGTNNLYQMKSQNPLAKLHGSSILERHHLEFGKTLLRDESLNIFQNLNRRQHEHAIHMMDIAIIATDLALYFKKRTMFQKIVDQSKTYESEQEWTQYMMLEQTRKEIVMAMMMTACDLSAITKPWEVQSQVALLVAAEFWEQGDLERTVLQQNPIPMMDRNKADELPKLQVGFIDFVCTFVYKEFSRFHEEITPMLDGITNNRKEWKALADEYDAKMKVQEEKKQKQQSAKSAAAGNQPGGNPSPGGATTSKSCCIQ

Substance-K receptor = target: T5, Substance-K receptor (Homo sapiens, UniProt P21452)
T5 sequence (P21452 whole entry): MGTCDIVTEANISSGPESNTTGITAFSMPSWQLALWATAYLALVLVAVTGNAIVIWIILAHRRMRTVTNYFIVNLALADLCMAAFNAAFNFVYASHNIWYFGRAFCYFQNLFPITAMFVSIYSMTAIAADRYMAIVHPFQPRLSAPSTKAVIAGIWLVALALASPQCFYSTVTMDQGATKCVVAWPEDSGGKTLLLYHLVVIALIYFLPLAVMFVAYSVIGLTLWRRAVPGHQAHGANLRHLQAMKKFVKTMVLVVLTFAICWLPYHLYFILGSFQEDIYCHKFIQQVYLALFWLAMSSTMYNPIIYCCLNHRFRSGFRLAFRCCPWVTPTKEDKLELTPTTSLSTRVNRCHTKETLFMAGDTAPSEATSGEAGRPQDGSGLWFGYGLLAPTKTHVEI
Further: assay procedure not described here.

## C[N+]12CCC(CC1)C(OC(=O)C(O)(c1ccccc1)c1ccccc1)C2 (centres undefined)
[1]
  AC50: 0.0032 µM

## CO/N=C(\C(=O)N[C@@H]1C(=O)N2C(C(=O)O)=CCS[C@H]12)c1csc(N)n1 [CEFTIZOXIME]
[2]
  AC50: > 30 µM

## CO/N=C(\C(=O)N[C@@H]1C(=O)N2C(C(=O)O)=C(CSc3nc(=O)c(=O)[nH]n3C)CS[C@H]12)c1csc(N)n1 [CEFTRIAXONE]
[3]
  AC50: > 50 µM
[4]
  AC50: > 30 µM
[2]
  AC50: 1.4 µM

## COc1cc(N)c(Cl)cc1C(=O)NC1CCN(CCCOc2ccc(F)cc2)CC1OC (centres undefined) [CISAPRIDE]
B1 bradykinin receptor
  AC50: > 30 µM
[3]
  AC50: > 50 µM
[5]
  AC50: > 30 µM
[6]
  AC50: > 10 µM
[1]
  AC50: > 10 µM

## CCOC(=O)C(C)(C)Oc1ccc(Cl)cc1 [CLOFIBRATE]
B1 bradykinin receptor
  AC50: > 30 µM
[5]
  AC50: > 30 µM
[2]
  AC50: > 30 µM
[1]
  AC50: > 10 µM

## CCCCOc1ccc(C(=O)CCN2CCCCC2)cc1 [DYCLONINE]
B1 bradykinin receptor
  AC50: > 30 µM
[5]
  AC50: > 30 µM
D(1B) dopamine receptor
  AC50: > 10 µM
[6]
  AC50: > 10 µM
[7]
  AC50: > 10 µM
[8]
  AC50: > 10 µM
[9]
  AC50: > 10 µM
Substance-K receptor
  AC50: > 10 µM
[1]
  AC50: 2.81 µM

## CC(C)NC[C@H](O)COc1ccc(CC(N)=O)cc1 [ESATENOLOL]
B1 bradykinin receptor
  AC50: > 30 µM
[5]
  AC50: > 30 µM
[8]
  AC50: > 10 µM

## NNC(=O)c1ccncc1 [ISONIAZID]
B1 bradykinin receptor
  AC50: > 30 µM
[5]
  AC50: > 30 µM
[8]
  AC50: > 10 µM

## O=C1Nc2ccc(Cl)cc2C(c2ccccc2Cl)=NC1O (centres undefined) [LORAZEPAM]
B1 bradykinin receptor
  AC50: > 30 µM
[5]
  AC50: > 30 µM
[1]
  AC50: > 10 µM

## Cc1ccnc2c1NC(=O)c1cccnc1N2C1CC1 [NEVIRAPINE]
B1 bradykinin receptor
  AC50: > 30 µM
[5]
  AC50: > 30 µM
D(1B) dopamine receptor
  AC50: > 10 µM
[7]
  AC50: > 10 µM
[8]
  AC50: > 10 µM
[9]
  AC50: > 10 µM
Substance-K receptor
  AC50: > 10 µM
[1]
  AC50: > 10 µM

## O=C(NCCO[N+](=O)[O-])c1cccnc1 [NICORANDIL]
[4]
  AC50: > 30 µM

## CO[C@H]1C[C@H](O[C@H]2CC[C@@]3(C)[C@H](CC[C@@H]4[C@@H]3CC[C@]3(C)[C@@H](C5=CC(=O)OC5)[C@@H](OC(C)=O)C[C@]43O)C2)O[C@@H](C)[C@@H]1O [OLEANDRIN]
[4]
  AC50: > 30 µM

## O=c1[nH]c2ccccc2n1CCCN1CCN(C(c2ccccc2)c2ccccc2)CC1 [OXATOMIDE]
[4]
  AC50: > 30 µM

## COc1cc2[nH]c(C)c(CCN3CCN(c4ccccc4)CC3)c2cc1OC [OXYPERTINE]
[4]
  AC50: > 30 µM

## Fc1ccc([C@@H]2CCNC[C@H]2COc2ccc3c(c2)OCO3)cc1 [PAROXETINE]
B1 bradykinin receptor
  AC50: > 30 µM
[3]
  AC50: > 50 µM
[5]
  AC50: > 30 µM
D(1B) dopamine receptor
  AC50: > 10 µM
[6]
  AC50: > 10 µM
[7]
  AC50: 5.63 µM
[9]
  AC50: > 10 µM
Substance-K receptor
  AC50: > 10 µM

## c1ccc(C2(N3CCCCC3)CCCCC2)cc1 [PHENCYCLIDINE]
[4]
  AC50: > 30 µM

## COc1cc(C(=O)OCc2cccc(COC(=O)c3cc(OC)c(OC)c(OC)c3)n2)cc(OC)c1OC [PIROZADIL]
[4]
  AC50: > 30 µM

## CCC(=O)O[C@](Cc1ccccc1)(c1ccccc1)[C@H](C)CN(C)C [PROPOXYPHENE]
B1 bradykinin receptor
  AC50: > 30 µM
[5]
  AC50: > 30 µM
[1]
  AC50: > 10 µM

## O=c1c(O)c(-c2ccc(O)c(O)c2)oc2cc(O)cc(O)c12 [QUERCETIN]
B1 bradykinin receptor
  AC50: > 30 µM
[5]
  AC50: > 30 µM
[1]
  AC50: > 10 µM

## CCN1CCCC1CNC(=O)c1cc(S(=O)(=O)CC)ccc1OC (centres undefined) [SULTOPRIDE]
[4]
  AC50: > 30 µM

## CCOC(=O)[C@@H](N)Cc1ccc(-c2cc(O[C@H](c3ccc(Cl)cc3-n3ccc(C)n3)C(F)(F)F)nc(N)n2)cc1 [TELOTRISTAT ETHYL]
[4]
  AC50: > 30 µM
[2]
  AC50: > 30 µM

## CCCCCCCC(=O)CC[C@@H]1[C@@H](C/C=C\CCCC(=O)OC(C)C)[C@@H](O)C[C@H]1O [UNOPROSTONE ISOPROPYL]
[3]
  AC50: > 50 µM
